Assays:
Assay type in all cases: in vivo, rat
[1] = tested on: sucrose loaded normoglycaemic rats; assay: Antihyperglycaemic activity on sucrose loaded normoglycaemic rats (SLM); conditions: for Blood Glucose Profile 0 min: 0 min (fasting baseline); for Blood Glucose Profile 0 min / Blood Glucose Profile 30 min / Blood Glucose Profile 60 min / Blood Glucose Profile 90 min / Blood Glucose Profile 120 min / % Antihyperglycaemic activity SLM: sucrose loaded normoglycaemic rats, compounds 100 mg/kg, Januvia 50 mg/kg; for Blood Glucose Profile 0 min / Blood Glucose Profile 30 min / Blood Glucose Profile 60 min / Blood Glucose Profile 90 min / Blood Glucose Profile 120 min: mean ± S.E.; for Blood Glucose Profile 30 min: 30 min post sucrose; for Blood Glucose Profile 60 min: 60 min post sucrose; for Blood Glucose Profile 90 min: 90 min post sucrose; for Blood Glucose Profile 120 min: 120 min post sucrose; for % Antihyperglycaemic activity SLM: AUC vs control, oral; for improvement in glucose tolerance: sucrose loaded normoglycemic rats, 100 mg/kg b.w., result in words
Procedure: (§1) The test compounds and standard antidiabetic drug Januvia were prepared in 1.0% freshly prepared Gum acacia.
Assessment of Test Compounds for Antihyperglycaemic Activity on Sucrose Loaded Normoglycaemic Rats—
In order to search towards the antidiabetic activity, synthetic compounds were preliminary evaluated for their effect on glucose tolerance in normal rats. It is an indirect effect of measuring antihyperglycaemic activity. Male albino rats of Wistar strain of body weight 160±20 g were selected for this study. The blood glucose of each animal was checked by glucometer using glucostrips (Accu-check) after 16 hours starvation. Animals showing blood glucose between 60 to 80 mg/dl (3.33 to 4.44 mM) were divided into groups of five to six animals in each. Rats of experimental group were administered suspension of the desired test compound orally (made in 1.0% gum acacia). The standard dose decided for Synthetic compounds is 100 mg/kg body weight. Animals of control group were given an equal amount of 1.0% gum acacia. A sucrose load (10.0 g/kg) was given to each animal orally exactly after 30 min post administration of the test sample/vehicle. Blood glucose profile of each rat was again determined at 30, 60, 90 and 120 min post administration of sucrose by glucometer. Food but not water was withheld from the cages during the course of experimentation. Quantitative glucose tolerance of each animal was calculated by area under curve (AUC) method using Prism Software. Comparing the AUC of experimental and control groups determined the percentage antihyperglycaemic activity. Statistical comparison was made by Dunnett's test.
(§2) Quantitative glucose tolerance of each animal was calculated by the area under the curve (AUC) method using Prism Software. The area under the curve of the control group and the experimental group was compared to determine the percent antihyperglycaemic activity. Statistical comparisons were performed by one-way analysis of variance (ANOVA), followed by Dunnett's multiple range test (DMRT). The results were considered statistically significant if the ‘p’ values were 0.05 or less. Results were expressed as mean±SEM.

[2] = tested on: sucrose challenged STZ induced diabetic rats; assay: Antihyperglycaemic activity in sucrose challenged streptozotocin (STZ)-induced diabetic rats (STZ-S); conditions: compounds 100 mg/kg, Januvia 50 mg/kg; for % Antihyperglycaemic activity STZ-S 0-5 h AUC / % Antihyperglycaemic activity STZ-S 0-24 h AUC: oral; for Blood Glucose Profile 0 min (Pre treatment): 0 min pre treatment (fasting baseline)
Procedure: The test compounds and standard antidiabetic drug Januvia were prepared in 1.0% freshly prepared Gum acacia. Assessment of Test Compounds for Antihyperglycaemic Activity in Sucrose Challenged Streptozotocin STZ-Induced Diabetic Rats— Induction of Diabetes in Rats: Overnight starved male albino rats of Sprague Dawley strain were used and Diabetes was induced in the animals by single intraperitoneal injection of Streptozotocin at 60 mg/kg body weight dose prepared in 0.1M citrate buffer (pH 4.5). Fasting blood glucose level was measured by using a Glucometer (ACCU-CHEK II; […] Grouping and Treatment: […] All the diabetic animals were again divided into groups with five animals in each group. Animals of one group were regarded as the control group (orally administered 1% gum acacia) and the others were treated as the experimental groups. […] Animals of the control group were given an equal amount of 1.0% gum acacia. The standard antidiabetic drug Januvia was given to the animals at an oral dose of 50 mg/kg body weight. […] Food but not water was withheld from the cages during the course of experimentation. Percent hyperglycemic activity was determined by comparing the AUC (area under curve) of experimental groups with that of the vehicle treated control group. Quantitative glucose tolerance of each animal was calculated by the area under the curve (AUC) method using Prism Software. The area under the curve of the control group and the experimental group was compared to determine the percent antihyperglycaemic activity. Statistical comparisons were performed by one-way analysis of variance (ANOVA), followed by Dunnett's multiple range test (DMRT). […] Results were expressed as mean±SEM.

[3] = tested on: low dosed STZ induced diabetic rats; assay: Antihyperglycaemic activity in low dosed streptozotocin induced diabetic rats (STZ); conditions: for Blood Glucose Profile 0 min (Pre treatment): 0 min pre treatment (fasting baseline); for Blood Glucose Profile 0 min (Pre treatment) / Blood Glucose Profile 30 min (Post treatment) / Blood Glucose Profile 60 min (Post treatment) / Blood Glucose Profile 90 min (Post treatment) / Blood Glucose Profile 120 min (Post treatment) / Blood Glucose Profile 180 min (Post treatment) / Blood Glucose Profile 240 min (Post treatment) / Blood Glucose Profile 300 min (Post treatment) / Blood Glucose Profile 1440 min (Post treatment) / % Antihyperglycaemic activity STZ 0-5 h AUC / % Antihyperglycaemic activity STZ 0-24 h AUC: low dosed STZ diabetic rats, compounds 100 mg/kg, Januvia 50 mg/kg; for % Antihyperglycaemic activity STZ 0-5 h AUC / % Antihyperglycaemic activity STZ 0-24 h AUC: oral; for lowering in the hyperglycaemia of the diabetic rats: low dosed streptozotocin induced diabetic rats, 100 mg/kg, result in words
Procedure: as §1
Assessment of Test Compounds for Antihyperglycaemic Activity in Low Dosed Streptozotocin Induced Diabetic Rats—
Induction of Diabetes in Rats:
Overnight starved male albino rats of Sprague Dawley strain were used and Diabetes was induced in the animals by single intraperitoneal injection of Streptozotocin at 60 mg/kg body weight dose prepared in 0.1M citrate buffer (pH 4.5). Fasting blood glucose level was measured by using a Glucometer (ACCU-CHEK II; Roche Diagnostics, USA) after 48 hours and animals showing blood glucose level above 300 mg/di were considered as diabetic.
The diabetic animals were divided into four groups (Group 1 to 4) each consisting 6 rats. Group 1 received 0.4 ml vehicle (1% gum acacia). Group 2 received the test compound 5 at an oral dose of 100 mg/kg/body weight. Group 3 was given compound 6 at an oral dose of 100 mg/kg/body weight. The standard antidiabetic drug Januvia was given to the animals of Group 4 at an oral dose of 50 mg/kg body weight. […] Food but not water was withheld from the cages during the course of experimentation. Percent hyperglycemic activity was determined by comparing the AUC (area under curve) of experimental groups with that of the vehicle treated control group.
as §2

Structure (SMILES) | Blood Glucose Profile 0 min [1] [mg/dL] | Blood Glucose Profile 30 min [1] [mg/dL] | Blood Glucose Profile 60 min [1] [mg/dL] | Blood Glucose Profile 90 min [1] [mg/dL] | Blood Glucose Profile 120 min [1] [mg/dL] | % Antihyperglycaemic activity SLM [1] [%] | improvement in glucose tolerance [1] | % Antihyperglycaemic activity STZ-S 0-5 h AUC [2] [%] | % Antihyperglycaemic activity STZ-S 0-24 h AUC [2] [%] | Blood Glucose Profile 0 min (Pre treatment) [2] [mg/dL] | Blood Glucose Profile 30 min (Post treatment) [2] [mg/dL] | Blood Glucose Profile 60 min (Post treatment) [2] [mg/dL] | Blood Glucose Profile 90 min (Post treatment) [2] [mg/dL] | Blood Glucose Profile 120 min (Post treatment) [2] [mg/dL] | Blood Glucose Profile 180 min (Post treatment) [2] [mg/dL] | Blood Glucose Profile 240 min (Post treatment) [2] [mg/dL] | Blood Glucose Profile 300 min (Post treatment) [2] [mg/dL] | Blood Glucose Profile 1440 min (Post treatment) [2] [mg/dL] | Blood Glucose Profile 0 min (Pre treatment) [3] [mg/dL] | Blood Glucose Profile 30 min (Post treatment) [3] [mg/dL] | other results
COC(=O)c1c(SC)cc(-c2ccc(C)cc2)c2c1-c1cn(-c3ccccc3)nc1CC2 [compound 5, methyl 8-(methylthio)-2-phenyl-6-p-tolyl-4,5-dihydro-2H-benzo[e]indazole-9-carboxylate] | 66.2 ± 3.05 | 107.4 ± 7.76 | 104.8 ± 5.12 | 108.3 ± 3.59 | 109.8 ± 7.86 | 35.8 | significant improvement in glucose tolerance | 20.4 | 23.6 | 222.3 ± 9.39 | 515.6 ± 15.5 | 528.6 ± 14.4 | 506.5 ± 14.0 | 459.6 ± 11.2 | 402.1 ± 5.58 | 332.5 ± 15.6 | 284.3 ± 16.9 | 411.1 ± 13.6 | 346.6 ± 6.19 | 434.2 ± 12.4 | Blood Glucose Profile 60 min (Post treatment) [3]: 481.2 ± 11.8 mg/dL; Blood Glucose Profile 90 min (Post treatment) [3]: 447.0 ± 8.16 mg/dL; Blood Glucose Profile 120 min (Post treatment) [3]: 434.8 ± 11.7 mg/dL; Blood Glucose Profile 180 min (Post treatment) [3]: 385.6 ± 5.8 mg/dL; Blood Glucose Profile 240 min (Post treatment) [3]: 353.6 ± 16.4 mg/dL; Blood Glucose Profile 300 min (Post treatment) [3]: 362.4 ± 17.6 mg/dL; Blood Glucose Profile 1440 min (Post treatment) [3]: 483.0 ± 3.95 mg/dL; % Antihyperglycaemic activity STZ 0-5 h AUC [3]: 23.1%; % Antihyperglycaemic activity STZ 0-24 h AUC [3]: 18.2%; lowering in the hyperglycaemia of the diabetic rats [3]: significant lowering in the hyperglycaemia
COC(=O)c1c(SC)cc(-c2cccc3ccccc23)c2c1-c1cn(-c3ccccc3)nc1CC2 [compound 6, methyl 8-(methylthio)-6-(naphthalen-1-yl)-2-phenyl-4,5-dihydro-2H-benzo[e]indazole-9-carboxylate] | 66.2 ± 2.63 | 120.0 ± 7.30 | 111.2 ± 7.30 | 110.4 ± 4.73 | 107.4 ± 4.95 | 23.5 | significant improvement in glucose tolerance | 29.7 | 25.7 | 222.6 ± 6.55 | 442.1 ± 18.2 | 520.0 ± 10.3 | 464.0 ± 14.4 | 399.3 ± 14.0 | 334.0 ± 13.4 | 301.6 ± 18.8 | 277.0 ± 10.1 | 405.0 ± 17.6 | 344.0 ± 3.91 | 444.6 ± 16.6 | Blood Glucose Profile 60 min (Post treatment) [3]: 492.0 ± 13.6 mg/dL; Blood Glucose Profile 90 min (Post treatment) [3]: 490.2 ± 11.2 mg/dL; Blood Glucose Profile 120 min (Post treatment) [3]: 474.8 ± 15.0 mg/dL; Blood Glucose Profile 180 min (Post treatment) [3]: 426.0 ± 16.0 mg/dL; Blood Glucose Profile 240 min (Post treatment) [3]: 385.8 ± 15.6 mg/dL; Blood Glucose Profile 300 min (Post treatment) [3]: 355 ± 14.3 mg/dL; Blood Glucose Profile 1440 min (Post treatment) [3]: 442.4 ± 9.64 mg/dL; % Antihyperglycaemic activity STZ 0-5 h AUC [3]: 18.9%; % Antihyperglycaemic activity STZ 0-24 h AUC [3]: 20.1%; lowering in the hyperglycaemia of the diabetic rats [3]: significant lowering in the hyperglycaemia
